Where a name gives a salt, the structure may show the parent alone.
Columns and labels:
[1] = Cytotoxicity assay CellTiter-Blue, MT-4; format: cell-based; conditions: human; MT-4 cells, 4 to 8 days; mean ± SEM, three experiments
Experimental: (§1) Cytotoxicity assays. Cytotoxicity was measured with CellTiter-Blue® Cell Viability Assay according to the manufacturer's protocol (Promega). Two cell lines, MT-4 and HeLa, were used in this assay. Cells were incubated with serial dilution of compounds at 37° C. for 4 to 8 days and subjected to CellTiter-Blue Reagent. The fluorescent signal was measured at 560 nm Ex/590 nm Em by a plate reader (TECAN, Infinite® M1000 PRO). The 50% cytotoxic concentrations (CC50s) were defined as compound concentrations at which the fluorescent signals were reduced by 50%/relative to the no-inhibitor (DMSO only) controls using GraphPad Prism 6 software and are reported in Table 1.

[2] = Cytotoxicity assay CellTiter-Blue, HeLa; format: cell-based; conditions: human; HeLa cells, 4 to 8 days; mean ± SEM, three experiments
Experimental: as §1

[3] = system: pNL4-3 SP1-V7A in MT-4 cells; experiment: Antiviral assay in MT-4 cells (RT readout), SP1-V7A; format: cell-based, HIV-1; conditions: Human immunodeficiency virus 1, MT4, 96 h, read-out: Antiviral Assay IC50 (nM) SP1 V7A
Experimental: (§2) Cell culture, plasmids and transfections. The MT-4 T-cell line was maintained in RPMI-1640 medium supplemented with 10% (vol/vol) fetal bovine serum (FBS), 2 mM glutamine, 100 U/mL penicillin and 100 μg/mL streptomycin at 37° C. in a humidified 5% CO2 atmosphere. HeLa and 293T cells were maintained in Dulbecco's modified Eagle's medium (DMEM) supplemented with 5% (vol/vol) FBS, 2 mM glutamine, 100 U/mL penicillin and 100 μg/mL streptomycin. Molecular clones used in this study were WT pNL4-3 and the derivative encoding a Val-to-Ala mutation at SP1 residue 7, referred to as SP1-V7A. The MT-4 T-cell line was transfected the DEAE/dextran procedure; HeLa and 293T cells were transfected with linear polyethylenimine (L-PEI) or Lipofectamine 2000 (Invitrogen) as recommended by the supplier.
(§3) Antiviral assays. To produce HIV-1 stocks, 293T cells were transfected with WT pNL4-3 or the SP1-V7A derivative and culture supernatants were collected 24 h post transfection. RT-normalized virus supernatants were used to infect MT-4 cells at room temperature for 30 min. Cells were then cultured in the presence of serial dilutions of compounds. […] The IC50s in primary peripheral blood mononuclear cells (PBMCs) were calculated with a multi-clade panel of HIV-1 isolates by Southern Research Institute (Frederick, Md.). […]

WT pNL4-3 in MT-4 cells = experiment: Antiviral assay in MT-4 cells (RT readout), WT NL4-3; format: cell-based, HIV-1; conditions: Human immunodeficiency virus 1, NL43, MT4, 96 h, read-out: Antiviral Assay IC50 (nM) NL4-3
Experimental: as §2, §3

C=C(C)[C@@H]1CC[C@]2(CCNC3CCN(CCO)CC3)CC[C@]3(C)[C@H](CC[C@@H]4[C@@]5(C)CC[C@H](OC(=O)CC(C)(C)CC(=O)O)C(C)(C)[C@@H]5CC[C@]43C)[C@@H]12 [Compound 51f, (3β)-17-[2-[[1-(2-Hydroxyethyl)piperidin-4-yl]amino]ethyl]-28-norlup-20(29)-en-3-ol, 3-(Hydrogen 3,3-Dimethylpentanedioate), Bis(trifluoroacetate) Salt]
CC50 [1]: 366 ± 44 nM
CC50 [2]: > 1000 nM
IC50 [3]: 8 ± 2 nM
IC50 (WT pNL4-3 in MT-4 cells): 21 ± 19 nM

Reference: US11236122B2, “Triterpene amine derivatives” (DFH THERAPEUTICS, priority 2018, dated 2022)
